Tests used:
GFP cells (GFP-H460) = test: Experiment using rat cannulation, counting GFP-cancer cells in blood; format: in vivo; conditions: cells pretreated with 100 μM RB, injected IV into SD rats, 473 nm 80 mW for 5 minutes at cannulated tubing
Experimental: (1) GFP cells (GFP-H460) were seeded into two 100-mm dishes at a concentration of 1×10^7 cells/ml. On the next day, 100 μM of rose bengal (RB) was applied thereto (in the subsequent procedure, light exposure was avoided as much as possible). In 4 hours after RB treatment, the cells were harvested using trypsin, suspended in FBS pre-culture medium at 2×10^6 cells/300 μl, and placed in a 1.5 ml tube.
Six out of 10 8 weeks aged SD rats were injected in IV (tail) manner with the cell solution. The […] sections of the 5 SD rats were incised. The carotid artery and venous vein were discovered and cannulated using a 279 μm ID×609 μm OD×152 μm wall sized polyethylene tubing (BD, 427401) wet with heparin. Thus, blood flow was carried out through the tubing. Irradiation of 473 nm light with an intensity of 80 mW to the cannulated tubing site was performed for 5 minutes. The irradiated rats were weighed and incubated overnight in a constant-temperature constant-humid chamber. […]
1 ml of 0.1 μg/ml DAPI/PBST solution was added thereto. […] GFP-cancer cells were counted using a fluorescent microscope (Nikon, Diaphot 300), and the numbers of GFP-cancer cells according to the presence or absence of light irradiation were compared with each other. […]

[1] = tested on: GFP+ A549, RFP+ A549 and YFP+ A549 cells; test: In vitro PDT of GFP+, RFP+ and YFP+ cells with photosensitizer, MTT analysis; format: cell-based, human; conditions: 1 μM, blue laser light (488 nm), FIG. 20
Experimental: Photo inducing death of GFP+, RFP+, and YFP+ cells via the photosensitizer was measured by MTT analysis. The specific experimental procedure is as follows.
To investigate photo inducing death of GFP+ cells, RFP+ cells, and YFP+ cells via the photosensitizer, rose bengal, hematoporphyrin (Sigma-aldrich #5518) or 5-ALA (5-Aminolevulinic acid hydrochloric, Sigma-aldrich # A3785) was diluted with RPMI medium containing 10% FBS. 1 μM concentration of rose bengal, hematoporphyrin or 5-ALA was prepared. Further, GFP+ A549 cells, RFP+ A549 cells and YFP+ A549 cells selected from the 1-4 were pre-incubated at a density of 5×10^3 cells per well on 96-well, black, and clear bottom plates. A549 cells with pcDNA 3.1 vector injected thereto were cultured as control. Then, each of the photosensitizers as produced was applied or not applied to the preincubated cells in the preincubated cells which in turn were cultured for 4 hours. After 4 hours, the cells were washed three times with PBS buffer. Irradiation or non-irradiation of blue laser light (488 nm; radiation dose rate=2 J/cm^2) or yellow laser light (570 nm; radiation dose rate=2 J/cm^2) thereto was carried out for 5 seconds. After irradiation or non-irradiation, a fresh culture medium was added to the wells. The cells were cultured again for 24 hours. MTT analysis was then performed.

eGFP+-Lgr5+ cells = test: Visualization of in vivo cell death with FLIVO probe; design: species or system mouse; conditions: Lgr5-EGFP-IRES-creERT2 knock-in mice, RB treatment and laser light irradiation
Experimental: To measure cell death in live animals, FLIVO™ probes were diluted with PBS containing 1% DMSO at doses according to animal weight. The fluorescent red probe FLIVO™ (Immunochemistry Technologies LLC, Abcys SA, Paris, France) was intravenously injected into wild type and GFP-Lgr5 mice. The mouse was euthanized after 1 hour and the colon tissue was separated therefrom. Fluorescent signals from FLIVO™ were imaged using a confocal microscope.

## O=C1OC2(c3cc(I)c(O)c(I)c3Oc3c2cc(I)c(O)c3I)c2c(Cl)c(Cl)c(Cl)c(Cl)c21 [RB, rose bengal]
GFP cells (GFP-H460)
  GFP-cancer cells in blood with or without light irradiation: only GFP cells were specifically killed
[1]
  cell death effect, YFP+ versus GFP+ cell: the cell death effect of the YFP+ cell is higher than that of GFP+ cell
eGFP+-Lgr5+ cells
  cell death signal in eGFP+-Lgr5+ cell region versus adjacent low-GFP-expression region: stronger

Source: patent publication US20190365927A1, “COMPOSITION FOR PHOTODYNAMIC THERAPY USING GENE EXPRESSING FLUORESCENT PROTEIN AND PHOTOSENSITIZER, AND PHOTODYNAMIC THERAPY METHOD USING SAME” (priority 2017, published 2019)
